Measured values: ChEMBL document CHEMBL6121000, “Corosolic acid and its derivatives targeting MCCC1 against insulin resistance and their hypoglycemic effect on type 2 diabetic mice” (Eur J Med Chem, 2025)
Values after ≈ are worked out from the molar mass of the structure shown. Active and inactive are the calls of the source. The rule behind the calls is not given here.

Key:
HepG2 [1] = assay: Inhibition of insulin resistance in human HepG2 cells assessed as decrease in GlcN-induced glucose production at 20 uM preincubated for 1 hr followed by GlcN treatment for 18 hrs and subsequent insulin stimulation for 20 mins; format: functional, cell-based; conditions: time 19.33 hrs
[2] = Toxicity in Sprague-Dawley rat assessed as reduction in number of crypts in colon tissue at 20 mg/kg, po for 5 days; format: organism-based; conditions: in vivo, 120 h, time 5 day
[3] = Toxicity in Sprague-Dawley rat assessed as damage in lungs at 20 mg/kg, po for 5 days; format: organism-based; conditions: in vivo, 120 h, time 5 day
Mus musculus [4] = assay: Improvement in hepatic total cholesterol level of HFD-fed STZ-induced diabetic C57BL/6J mouse model at 20 mg/kg, po administered everyday for 3 weeks; format: functional, organism-based
[5] = Cytotoxicity against human HepG2 cells assessed as cell viability at 80 uM incubated for 24 hrs by CCK8 assay relative to control; format: toxicity, cell-based; conditions: HepG2 cells, read-out: Activity
[6] = Half life in Sprague-Dawley rat at 20 mg/kg, po measured for 24 hrs by HPLC-ESI-MS analysis; format: ADME, organism-based; conditions: in vivo
[7] = Volume of distribution in Sprague-Dawley rat at 20 mg/kg, po measured for 24 hrs by HPLC-ESI-MS analysis; format: ADME, organism-based; conditions: in vivo
Mus musculus [8] = assay: Hypoglycemic activity in HFD-fed STZ-induced diabetic C57BL/6J mouse model assessed as decrease in blood glucose level at 20 mg/kg, po administered everyday for 3 weeks; format: functional, organism-based
[9] = Solubility of compound in PBS; format: physicochemical
[10] = Tmax in Sprague-Dawley rat at 20 mg/kg, po measured for 24 hrs by HPLC-ESI-MS analysis; format: ADME, organism-based; conditions: in vivo
HepG2 [11] = assay: Cytotoxicity against human HepG2 cells assessed as cell survival at 40 uM by MTT assay; format: toxicity, cell-based; conditions: hepg2, 40 µM
[12] = Toxicity in Sprague-Dawley rat assessed as damage in spleen at 20 mg/kg, po for 5 days; format: organism-based; conditions: in vivo, 120 h, time 5 day
[13] = AUC (0 to t) in Sprague-Dawley rat at 20 mg/kg, po measured for 24 hrs by HPLC-ESI-MS analysis; format: ADME, organism-based; conditions: in vivo
[14] = Cytotoxicity against human HepG2 cells assessed as cell survival at 20 uM by MTT assay relative to control; format: toxicity, cell-based; conditions: read-out: Survival
[15] = Cytotoxicity against human HepG2 cells assessed as cell survival at 10 uM by MTT assay relative to control; format: toxicity, cell-based; conditions: read-out: Survival
[16] = Toxicity in Sprague-Dawley rat assessed as inflammatory cell infiltration in colon tissue at 20 mg/kg, po for 5 days; format: organism-based; conditions: in vivo, 120 h, time 5 day
[17] = Oral bioavailability in Sprague-Dawley rat at 20 mg/kg measured for 24 hrs by HPLC-ESI-MS analysis; format: ADME, organism-based; conditions: in vivo
Mus musculus [18] = assay: Hypoglycemic activity in HFD-fed STZ-induced diabetic C57BL/6J mouse model assessed as increase in AKT phosphorylation in liver at 20 mg/kg, po administered everyday for 3 weeks by Western blot analysis; format: functional, organism-based
Mus musculus [19] = assay: Hypoglycemic activity in HFD-fed STZ-induced diabetic C57BL/6J mouse model assessed as reversal of diabetes-reduced MCCC1 level in liver at 20 mg/kg, po administered everyday for 3 weeks by Western blot analysis; format: functional, organism-based
HepG2 [20] = assay: Lipid lowering activity in human HepG2 cells assessed as reduction in FFA-induced triglyceride content at 20 uM preincubated for 1 hr followed by FFA treatment for 24 hrs; format: functional, cell-based; conditions: time 25.0 hrs
[21] = Clearance in Sprague-Dawley rat at 20 mg/kg, po measured for 24 hrs by HPLC-ESI-MS analysis; format: ADME, organism-based; conditions: in vivo
[22] = Toxicity in Sprague-Dawley rat assessed as damage in heart at 20 mg/kg, po for 5 days; format: organism-based; conditions: in vivo, 120 h, time 5 day
Mus musculus [23] = assay: Hypoglycemic activity in HFD-fed STZ-induced diabetic C57BL/6J mouse model assessed as increase in GLUT4 level in liver at 20 mg/kg, po administered everyday for 3 weeks by Western blot analysis; format: functional, organism-based
Mus musculus [24] = assay: Hypoglycemic activity in HFD-fed STZ-induced diabetic C57BL/6J mouse model assessed as improvement in triglyceride level in liver at 20 mg/kg, po administered everyday for 3 weeks; format: functional, organism-based
Mus musculus [25] = assay: Inhibition of glucose production in HFD-fed STZ-induced diabetic C57BL/6J mouse model at 20 mg/kg, po administered everyday for 3 weeks; format: functional, organism-based
HepG2 [26] = assay: Lipid lowering activity in human HepG2 cells assessed as inhibition of FFA-induced triglyceride content at 20 uM preincubated for 1 hr followed by FFA treatment for 24 hrs relative to control; format: functional
[27] = Cmax in Sprague-Dawley rat at 20 mg/kg, po measured for 24 hrs by HPLC-ESI-MS analysis; format: ADME, organism-based; conditions: in vivo
[28] = MRT (0 to t) in Sprague-Dawley rat at 20 mg/kg, po measured for 24 hrs by HPLC-ESI-MS analysis; format: ADME, organism-based; conditions: in vivo
[29] = Toxicity in Sprague-Dawley rat assessed as damage in liver at 20 mg/kg, po for 5 days; format: organism-based; conditions: in vivo, 120 h, time 5 day
[30] = Toxicity in Sprague-Dawley rat assessed as damage in colon at 20 mg/kg, po for 5 days; format: organism-based; conditions: in vivo, 120 h, time 5 day
Mus musculus [31] = assay: Hypoglycemic activity in HFD-fed STZ-induced diabetic C57BL/6J mouse model assessed as increase in hepatic glycogen synthesis at 20 mg/kg, po administered everyday for 3 weeks; format: functional, organism-based

In the case of `C[C@H]1[C@H](C)CC[C@]2(C(=O)O)CC[C@]3(C)C(=CC[C@@H]4[C@@]5(C)C[C@@H](O)[C@H](O)C(C)(C)[C@@H]5CC[C@]43C)[C@H]12` [COROSOLIC ACID], the inhibition (HepG2 [1]) is reported as “Active”, the Activity [2] is reported as “Non-toxic” and the Activity [3] is reported as “Non-toxic”. For the same compound, the Activity (Mus musculus [4]) was “inactive”, the viability at 24 h, 80 µM [5] was 13.5% and the half-life [6] was 16.5 h. The Vd [7] was 33.04048 L/kg, the Activity (Mus musculus [8]) was “Active; Slight Decrease Was Observed” and the solubility [9] was 0.55 µM (≈ 0.26 µg/mL). The Tmax [10] was 0.5 h, the Activity (HepG2 [11]) was “Toxic” and the Activity [12] was “Non-toxic”. It also gave an AUC(0-t) at 24 h [13] of 9200 ng·h/mL, a viability at 20 µM [14] of 101% and a viability at 10 µM [15] of 96%. The Activity [16] was “Non-toxic”, the bioavailability [17] was < 1% and the Activity (Mus musculus [18]) was “Active”. The Activity (Mus musculus [19]) was “Active”, the Activity (HepG2 [20]) was “Active” and the CL/F [21] was 23.1 mL/min/kg. For the same compound, the Activity [22] was “Non-toxic”, the Activity (Mus musculus [23]) was “Active; Slight Increase Observed” and the Activity (Mus musculus [24]) was “Active”. The inhibition (Mus musculus [25]) was “inactive”, the inhibition at 20 µM (HepG2 [26]) was 61.6% and the Cmax [27] was 802 ng/mL. For the same compound, the MRT last at 24 h [28] was 10.2 h, the Activity [29] was “Non-toxic” and the Activity [30] was “Non-toxic”. For the same compound, the Activity (Mus musculus [31]) was “Active”.
